Reference: patent publication US11617726B2, “Method for preventing, treating, or ameliorating a microbial infection” (priority 2018, dated 2023)
Values after ≈ are worked out from the molar mass of the structure shown. Like-named read-outs stand apart in the source and are kept apart here.

What was measured:
[1] = system: Acinetobacter baumannii isolates and Acinetobacter baumannii ATCC BAA 747; experiment: MIC determination by broth dilution method (CLSI M07-A9); type: cell-based; conditions: Acinetobacter baumannii
Procedure: (§1) Minimum Inhibitory Concentration (MIC) is the lowest concentration of an antimicrobial agent that prevents visible growth of a microorganism in an agar or broth dilution susceptibility test. MIC of thymoquinone was determined by the broth dilution method against 33 MDR Acinetobacter baumannii strains and standard sensitive culture collection strain of Acinetobacter baumannii and Pseudomonas aeruginosa. The MIC of gentamicin was deter lined by broth dilution method against six MDR Acinetobacter baumannii strains and standard sensitive culture collection strains of Acinetobacter baumannii and Pseudomonas aeruginosa. MIC testing was performed according to the recommendations and guidelines of Clinical Laboratory Standard Institutes (CLSI M07-A9; 2012). Clinical and Laboratory Standards Institute (CLSI), “Methods for Dilution Antimicrobial Susceptibility Tests for Bacteria That Grow Aerobically; Approved Standard,” Document M07-A9, Clinical and Laboratory Standards Institute (CLSI), Wayne, Pa., USA, 2012.
(§2) Twenty-one grams of Mueller-Hinton Broth (MHB) was suspended in 1 Liter distilled water and then boiled to dissolve the powder completely. The medium was sterilized by autoclaving at 121° C. for 15 min. After autoclaving, the medium was cooled to room temperature before use or stored in the fridge until used.
(§3) Thymoquinone was weighed and dissolved in Dimethyl sulfoxide (DMSO) to produce a thymoquinone stock solution with a concentration of 5,120 μg/ml. Gentamicin sulfate was weighed and dissolved in water to produce a gentamicin sulfate stock solution with a concentration of 5,120 μg/ml, equivalent to gentamicin base.
(§4) Dilutions of thymoquinone and gentamicin sulfate stock solutions were prepared volumetrically in the MHB as follows:
(§5) One mL of original stock solution (5,120 μg/ml) was added to 9 ml sterile MHB to give the working first dilution (512 μg/mL). 12 sterile 7 mL PJ tubes were arranged in a rack in a row. Each tube contained one mL sterile MHB. Ten tubes were labeled as 128 μg/mL, 64 μg/mL, 32 μg/mL, 16 μg/mL, 8 μg/mL, 4 μg/mL, 2 μg/mL, 1 μg/mL, 0.5 μg/mL and 0.25 μg/mL. The eleventh and twelfth tubes were labeled as positive and negative control, respectively.
(§6) The working dilution (512 μg/mL) was serially diluted to give two-fold dilutions. One mL of the working dilution (512 μg/mL) was dispensed in the first tube (labeled as 128 μg/mL) to give a concentration of 256 μg drug/mL MHB. One mL of the first tube was added to the second tube (labeled as 64 μg/mL) to give a concentration of 128 μg drug/mL MHB. One mL of the second tube was transferred to the third tube (labeled as 32 μg/mL) to give a concentration of 64 μg drug/mL MHB. One mL of the third tube was added to the fourth tube (labeled as 16 μg/mL) to give a concentration of 32 μg drug/mL MHB. One mL of the fourth tube was dispensed in the fifth tube (labeled as 8 μg/mL) to give a concentration of 16 μg drug/mL MHB. One mL of the fifth tube was dispensed in the sixth tube (labeled as 4 μg/mL) to give a concentration of 8 μg drug/mL MHB. One mL of the sixth tube was added to the seventh tube (labeled as 2 μg/mL) to give a concentration of 4 μg drug/mL MHB. One mL of the seventh tube was added to the eighth tube (labeled as 1 μg/mL) to give a concentration of 2 μg drug/mL MHB. One mL of the eighth tube was transferred to the ninth tube (labeled as 0.5 μg/mL) to give a concentration of 1 μg drug/mL MHB. One mL of the ninth tube was transferred to the tenth tube (labeled as 0.25 μg/mL) to give a concentration of 0.5 μg drug/mL MHB. The contents were mixed thoroughly by pipetting up and down three times. One mL of the content of the tenth tube was discarded.
(§7) The inoculum suspensions (at 1-2×10^8 CFU/mL) were diluted 1:100 in MHB to obtain 1×10^6 CFU/mL. One mL of the diluted inoculum suspension (1×10^6 CFU/mL) was transferred to each tube except tube 12.
(§8) All inoculated tubes were incubated for 16-20 hours at 37° C. aerobically. […]

[2] = system: Pseudomonas aeruginosa ATCC 27853; experiment: as above; type: cell-based; conditions: Pseudomonas aeruginosa, ATCC27853, P. aeruginosa ATCC 27853, read-out: MIC
Procedure: as §1, §2, §3, §4, §5, §6, §7, §8

With `CC1=CC(=O)C(C(C)C)=CC1=O` [Thymoquinone, 2-isopropyl-5-methylbenzo-1,4-quinone] the MIC ([1]; BAA747, A. baumannii ATCC BAA 747 (standard sensitive strain), read-out: MIC) was 32 µg/mL (≈ 195 µM), the MIC ([1]; BAA747, isolate AB1, read-out: MIC) was 32 µg/mL (≈ 195 µM) and the MIC ([1]; BAA747, isolate AB2, read-out: MIC) was 32 µg/mL (≈ 195 µM). It also gave an MIC ([1]; BAA747, isolate AB3, read-out: MIC) of 32 µg/mL (≈ 195 µM), an MIC ([1]; BAA747, isolate AB4, read-out: MIC) of 32 µg/mL (≈ 195 µM) and an MIC ([1]; BAA747, isolate AB5, read-out: MIC) of 32 µg/mL (≈ 195 µM). It also gave an MIC ([1]; BAA747, isolate AB6, read-out: MIC) of 64 µg/mL (≈ 390 µM), an MIC ([1]; BAA747, isolate AB7, read-out: MIC) of 32 µg/mL (≈ 195 µM) and an MIC ([1]; BAA747, isolate AB8, read-out: MIC) of 32 µg/mL (≈ 195 µM). It also gave an MIC ([1]; BAA747, isolate AB9, read-out: MIC) of 32 µg/mL (≈ 195 µM), an MIC ([1]; BAA747, isolate AB10, read-out: MIC) of 16 µg/mL (≈ 97.4 µM) and an MIC ([1]; BAA747, isolate AB11, read-out: MIC) of 32 µg/mL (≈ 195 µM). For the same compound, the MIC ([1]; BAA747, isolate AB12, read-out: MIC) was 32 µg/mL (≈ 195 µM), the MIC ([1]; BAA747, isolate AB13, read-out: MIC) was 32 µg/mL (≈ 195 µM) and the MIC ([1]; BAA747, isolate AB14, read-out: MIC) was 32 µg/mL (≈ 195 µM). It also gave an MIC ([1]; BAA747, isolate AB15, read-out: MIC) of 32 µg/mL (≈ 195 µM), an MIC ([1]; BAA747, isolate AB16, read-out: MIC) of 64 µg/mL (≈ 390 µM) and an MIC ([1]; BAA747, isolate AB17, read-out: MIC) of 64 µg/mL (≈ 390 µM). For the same compound, the MIC ([1]; BAA747, isolate AB18, read-out: MIC) was 32 µg/mL (≈ 195 µM), the MIC ([1]; BAA747, isolate AB19, read-out: MIC) was 64 µg/mL (≈ 390 µM) and the MIC ([1]; BAA747, isolate AB20, read-out: MIC) was 64 µg/mL (≈ 390 µM). For the same compound, the MIC ([1]; BAA747, isolate AB21, read-out: MIC) was 32 µg/mL (≈ 195 µM), the MIC ([1]; BAA747, isolate AB22, read-out: MIC) was 64 µg/mL (≈ 390 µM) and the MIC ([1]; BAA747, isolate AB23, read-out: MIC) was 32 µg/mL (≈ 195 µM). For the same compound, the MIC ([1]; BAA747, isolate AB24, read-out: MIC) was 32 µg/mL (≈ 195 µM), the MIC ([1]; BAA747, isolate AB25, read-out: MIC) was 32 µg/mL (≈ 195 µM) and the MIC ([1]; BAA747, isolate AB26, read-out: MIC) was 64 µg/mL (≈ 390 µM). It also gave an MIC ([1]; BAA747, isolate AB27, read-out: MIC) of 64 µg/mL (≈ 390 µM), an MIC ([1]; BAA747, isolate AB28, read-out: MIC) of 64 µg/mL (≈ 390 µM) and an MIC ([1]; BAA747, isolate AB29, read-out: MIC) of 64 µg/mL (≈ 390 µM). For the same compound, the MIC ([1]; BAA747, isolate AB30, read-out: MIC) was 32 µg/mL (≈ 195 µM), the MIC ([1]; BAA747, isolate AB31, read-out: MIC) was 32 µg/mL (≈ 195 µM) and the MIC ([1]; BAA747, isolate AB32, read-out: MIC) was 32 µg/mL (≈ 195 µM). The MIC ([1]; BAA747, isolate AB33, read-out: MIC) was 32 µg/mL (≈ 195 µM) and the MIC [2] was 64 µg/mL (≈ 390 µM).
